Structures are written as SMILES.

The subject of one assay is m-IMCD3 cells. The experiment in a line: Inhibition of PGE2-stimulated in vitro cyst formation in m-IMCD3 cells. It counts as cell-based, mouse. The conditions noted are these: Mus musculus, mIMCD3, 144 h, 3 μM; mean cyst area, 100% for (DMSO + PGE2) and 0% for DMSO control; 6 days of culture; read-out: % Cyst area after incubation with 3 μM test compound. Summed up: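 Mean cyst area after 6 days, expressed relative to DMSO+PGE2 (100%) and DMSO alone (0%), from z-stack images. Mouse m-IMCD3 spheroids grew in collagen I/Matrigel gels and received PGE2 (100 nM final) with test compound (0.1% DMSO) starting 18–24 h post-plating, media refreshed at day 2 or 3.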
As for `O=C(CC1CCCC1)N1CCc2nc(N3CC4CCC3CN4)sc2C1` (stereo not shown) [Example 278, 1-(2-(2,5-diazabicyclo[2.2.2]octan-2-yl)-6,7-dihydrothiazolo[5,4-c]pyridin-5(4H)-yl)-2-cyclopentylethan-1-one], the activity at 3 µM was found to be 2%.

With `O=C(c1ccc(F)nc1)N1CCc2nc(N3C4CCC3CNC4)sc2C1` [Example 200, (2-(3,8-diazabicyclo[3.2.1]octan-8-yl)-6,7-dihydrothiazolo[5,4-c]pyridin-5(4H)-yl)(6-fluoropyridin-3-yl)methanone], the activity at 3 µM was 4%. Same read-out and setting: to `COc1nc(F)ccc1C(=O)N1CCc2nc(N3C4CCC3CNC4)sc2C1` [Example 240, (2-(3,8-diazabicyclo[3.2.1]octan-8-yl)-6,7-dihydrothiazolo[5,4-c]pyridin-5(4H)-yl)(6-fluoro-2-methoxypyridin-3-yl)methanone] belongs -3%. Same read-out and setting: to `O=C(c1ccc(Cl)nc1)N1CCc2nc(N3C4CCC3CNC4)sc2C1` [Example 221, (2-(3,8-diazabicyclo[3.2.1]octan-8-yl)-6,7-dihydrothiazolo[5,4-c]pyridin-5(4H)-yl)(6-chloropyridin-3-yl)methanone] belongs 0%. The same measure, in the same setting: the result for `O=C(c1ccccc1OC(F)F)N1CCc2nc(N3C4CCC3CNC4)sc2C1` [Example 203, (2-(3,8-diazabicyclo[3.2.1]octan-8-yl)-6,7-dihydrothiazolo[5,4-c]pyridin-5(4H)-yl)(2-(difluoromethoxy)phenyl)methanone] reads -1%. With `CC(C)C(C)(C)C(=O)N1CCc2nc(N3C4CCC3CNC4)sc2C1` [Example 161, 1-(2-(3,8-diazabicyclo[3.2.1]octan-8-yl)-6,7-dihydrothiazolo[5,4-c]pyridin-5(4H)-yl)-2,2,3-trimethylbutan-1-one], the activity at 3 µM was -3%.

`Cc1cncc(-c2nc3c(s2)CN(C(=O)CC2CCCC2)CC3)c1` [Example 306, 2-cyclopentyl-1-(2-(5-methylpyridin-3-yl)-6,7-dihydrothiazolo[5,4-c]pyridin-5(4H)-yl)ethan-1-one]: the activity at 3 µM is -3%. As to `CC(F)(F)c1ccccc1C(=O)N1CCc2nc(N3C4CCC3CNC4)sc2C1` [Example 223, (2-(3,8-diazabicyclo[3.2.1]octan-8-yl)-6,7-dihydrothiazolo[5,4-c]pyridin-5(4H)-yl)(2-(1,1-difluoroethyl)phenyl)methanone], the activity at 3 µM stood at 14%.

As to `COc1cc(F)ccc1C(=O)N1CCc2nc(N3C4CCC3CNC4)sc2C1` [Example 222, (2-(3,8-diazabicyclo[3.2.1]octan-8-yl)-6,7-dihydrothiazolo[5,4-c]pyridin-5(4H)-yl)(4-fluoro-2-methoxyphenyl)methanone], the activity at 3 µM worked out at 4%. The same measure, in the same setting: the result for `O=C(c1ccccc1C1CC1)N1CCc2nc(N3C4CCC3CNC4)sc2C1` [Example 220, (2-(3,8-diazabicyclo[3.2.1]octan-8-yl)-6,7-dihydrothiazolo[5,4-c]pyridin-5(4H)-yl)(2-cyclopropylphenyl)methanone] reads -5%; that for `O=C(c1ccc(OC(F)(F)F)cc1)N1CCc2nc(N3C4CCC3CNC4)sc2C1` [Example 208, (2-(3,8-diazabicyclo[3.2.1]octan-8-yl)-6,7-dihydrothiazolo[5,4-c]pyridin-5(4H)-yl)(4-(trifluoromethoxy)phenyl)methanone], 8%; that for `Cc1ccccc1C(=O)N1CCc2nc(N3C4CCC3CNC4)sc2C1` [Example 194, (2-(3,8-diazabicyclo[3.2.1]octan-8-yl)-6,7-dihydrothiazolo[5,4-c]pyridin-5(4H)-yl)(o-tolyl)methanone], 1%.

For `O=C(c1cc2ccccc2cn1)N1CCc2nc(N3C4CCC3CNC4)sc2C1` [Example 192, (2-(3,8-diazabicyclo[3.2.1]octan-8-yl)-6,7-dihydrothiazolo[5,4-c]pyridin-5(4H)-yl)(isoquinolin-3-yl)methanone], the activity at 3 µM turned out to be 1%. The same measure, in the same setting: the result for `O=C(c1ccc(F)cn1)N1CCc2nc(N3C4CCC3CNC4)sc2C1` [Example 202, (2-(3,8-diazabicyclo[3.2.1]octan-8-yl)-6,7-dihydrothiazolo[5,4-c]pyridin-5(4H)-yl)(5-fluoropyridin-2-yl)methanone] reads -4%; that for `CC(O)(C(=O)N1CCc2nc(N3C4CCC3CNC4)sc2C1)C1CCCC1` (single isomer, unassigned) [Example 254, 1-(2-(3,8-diazabicyclo[3.2.1]octan-8-yl)-6,7-dihydrothiazolo[5,4-c]pyridin-5(4H)-yl)-2-cyclopentyl-2-hydroxypropan-1-one], -5%. Take `Cc1ccc(C(=O)N2CCc3nc(N4C5CCC4CNC5)sc3C2)c(C#N)c1` [Example 238, 2-(2-(3,8-diazabicyclo[3.2.1]octan-8-yl)-4,5,6,7-tetrahydrothiazolo[5,4-c]pyridine-5-carbonyl)-5-methylbenzonitrile]: the activity at 3 µM worked out at 5%. On the same count and under the same terms, the result for `Cc1cc(F)ncc1C(=O)N1CCc2nc(N3C4CCC3CNC4)sc2C1` [Example 242, (2-(3,8-diazabicyclo[3.2.1]octan-8-yl)-6,7-dihydrothiazolo[5,4-c]pyridin-5(4H)-yl)(6-fluoro-4-methylpyridin-3-yl)methanone] reads 29%; that for `CC(OC1CCCC1)C(=O)N1CCc2nc(N3C4CCC3CNC4)sc2C1` (stereo not shown) [Example 169, 1-(2-(3,8-diazabicyclo[3.2.1]octan-8-yl)-6,7-dihydrothiazolo[5,4-c]pyridin-5(4H)-yl)-2-(cyclopentyloxy)propan-1-one], -9%; that for `O=C(CC1CCCC1)N1Cc2sc(N3C4CCC3CNC4)nc2C2(CC2)C1` [Example 265, 1-(2′-(3,8-diazabicyclo[3.2.1]octan-8-yl)-4′H-spiro[cyclopropane-1,7′-thiazolo[5,4-c]pyridin]-5′(6′H)-yl)-2-cyclopentylethan-1-one], -3%.

The assay is the same for the next values; noted with them: Mus musculus, mIMCD3, 144 h, 10 μM; mean cyst area, 100% for (DMSO + PGE2) and 0% for DMSO control; 6 days of culture; read-out: % Cyst area after incubation with 10 μM test compound.
Consider `O=C(N1CCc2nc(N3C4CCC3CNC4)sc2C1)C1(Oc2ccccc2)CC1` [Example 31, (2-(3,8-diazabicyclo[3.2.1]octan-8-yl)-6,7-dihydrothiazolo[5,4-c]pyridin-5(4H)-yl)(1-phenoxycyclopropyl)methanone], for which the activity at 10 µM amounted to 7%. On the same count and under the same terms, the result for `O=C(CC12CC(C1)C2)N1CCc2nc(N3C4CCC3CNC4)sc2C1` [Example 12, 1-(2-(3,8-diazabicyclo[3.2.1]octan-8-yl)-6,7-dihydrothiazolo[5,4-c]pyridin-5(4H)-yl)-2-(bicyclo[1.1.1]pentan-1-yl)ethan-1-one] reads -2%; that for `O=C(CC1CCCC1)N1CCc2nc(N3CCN[C@@H](CO)C3)sc2C1` [Example 117, (R)-2-cyclopentyl-1-(2-(3-(hydroxymethyl)piperazin-1-yl)-6,7-dihydrothiazolo[5,4-c]pyridin-5(4H)-yl)ethan-1-one], 1%.

On to `O=C(Cc1ccnc(F)c1)N1CCc2nc(N3C4CCC3CNC4)sc2C1` [Example 141, 1-(2-(3,8-diazabicyclo[3.2.1]octan-8-yl)-6,7-dihydrothiazolo[5,4-c]pyridin-5(4H)-yl)-2-(2-fluoropyridin-4-yl)ethan-1-one], for which the activity at 10 µM was -7%.

`O=C(COc1ccc(F)cc1)N1CCn2nc(N3C4CCC3CNC4)cc2C1` [Example 72, 1-(2-(3,8-diazabicyclo[3.2.1]octan-8-yl)-6,7-dihydropyrazolo[1,5-a]pyrazin-5(4H)-yl)-2-(4-fluorophenoxy)ethan-1-one]: the activity at 10 µM was -3%. Still for that read-out and setting: to `COCC1(CC(=O)N2CCc3nc(N4C5CCC4CNC5)sc3C2)CCCC1` [Example 135, 1-(2-(3,8-diazabicyclo[3.2.1]octan-8-yl)-6,7-dihydrothiazolo[5,4-c]pyridin-5(4H)-yl)-2-(1-(methoxymethyl)cyclopentyl)ethan-1-one] belongs -6%. As for `CN1CC2CCC(C1)N2c1nc2c(s1)CN(C(=O)NC1CCC(F)(F)CC1)CC2` [Example 77, N-(4,4-difluorocyclohexyl)-2-(3-methyl-3,8-diazabicyclo[3.2.1]octan-8-yl)-6,7-dihydrothiazolo[5,4-c]pyridine-5(4H)-carboxamide], the activity at 10 µM was 1%.

Consider `O=C(C(F)C1CCCC1)N1CCc2nc(N3C4CCC3CNC4)sc2C1` (stereo not shown) [Example 34, 1-(2-(3,8-diazabicyclo[3.2.1]octan-8-yl)-6,7-dihydrothiazolo[5,4-c]pyridin-5(4H)-yl)-2-cyclopentyl-2-fluoroethan-1-one], for which the activity at 10 µM is -2%. Still for that read-out and setting: the result for `CC(C)CC(=O)N1CCc2nc(N3C4CCC3CNC4)sc2C1` [Example 9, 1-(2-(3,8-diazabicyclo[3.2.1]octan-8-yl)-6,7-dihydrothiazolo[5,4-c]pyridin-5(4H)-yl)-3-methylbutan-1-one] reads 0%; that for `O=C(C1CCCO1)N1CCc2nc(N3C4CCC3CNC4)sc2C1` (stereo not shown) [Example 133, (2-(3,8-diazabicyclo[3.2.1]octan-8-yl)-6,7-dihydrothiazolo[5,4-c]pyridin-5(4H)-yl)(tetrahydrofuran-2-yl)methanone], 19%; that for `COc1ccccc1CC(=O)N1CCc2nc(N3C4CCC3CNC4)sc2C1` [Example 139, 1-(2-(3,8-diazabicyclo[3.2.1]octan-8-yl)-6,7-dihydrothiazolo[5,4-c]pyridin-5(4H)-yl)-2-(2-methoxyphenyl)ethan-1-one], -1%. The same measure, in the same setting: to `COc1ccccc1OCC(=O)N1CCc2nc(N3C4CCC3CNC4)sc2C1` [Example 138, 1-(2-(3,8-diazabicyclo[3.2.1]octan-8-yl)-6,7-dihydrothiazolo[5,4-c]pyridin-5(4H)-yl)-2-(2-methoxyphenoxy)ethan-1-one] belongs 0%.

Source of the values: US20250388604A1, “Compounds and Their Use as PDE4 Activators” (Mironid Limited, priority 2022, published 2025).
